In patent US20200055839A1 (priority 2017, published 2020) one finds EC50 data, which are given here for 26 compounds.

For the assay, the system named is NL-RLuc virus. Put plainly: Inhibition of HIV replication (NL-RLuc virus, luciferase readout in MT-2 cells). As to conditions: Human immunodeficiency virus 1, MT2, 120 h, MT-2 cells infected with NL-RLuc virus, 5 days of incubation, 10% FBS, at least 2 experiments. It counts as cell-based. The procedure, abridged:
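MT-2 cells infected with NL4-3-derived virus carrying Renilla luciferase in place of part of nef, grown 5 days with serial compound dilutions in RPMI 1640/10% FBS. Virus growth read as luciferase expression. EC50 from median effect equation, at least 2 experiments.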

The term EC50 denotes the midpoint of the concentration-response curve. High values mean weaker potency, low ones greater potency. On to `Cc1nc(-c2ccn(C)n2)c(-c2ccc(OCCc3ccc(F)cc3)cc2)c(N2CCC(C)(C)CC2)c1[C@H](OC(C)(C)C)C(=O)O` [Example 46, (S)-2-(tert-Butoxy)-2-(4-(4,4-dimethylpiperidin-1-yl)-5-(4-(4-fluorophenethoxy)phenyl)-2-methyl-6-(1-methyl-1H-pyrazol-3-yl)pyridin-3-yl)acetic acid], for which the EC50 turned out to be 4 nM.

Consider `Cc1ncc(-c2cnc(OCCc3ccc(Cl)cc3Cl)c(F)c2)c(N2CCC(C)(C)CC2)c1[C@H](OC(C)(C)C)C(=O)O` [Example 234, (S)-2-(tert-Butoxy)-2-(6′-(2,4-dichlorophenethoxy)-4-(4,4-dimethylpiperidin-1-yl)-5′-fluoro-6-methyl-[3, 3′-bipyridin]-5-yl)acetic acid], for which the midpoint of the response, the EC50, lay at 4 nM.

Compound `CC1(C)CCN(c2c(-c3ccc(OCCc4ccc(F)cc4)cc3)c(CO)nc(Cl)c2[C@H](OC(C)(C)C)C(=O)O)CC1` [Example 212, (S)-2-(tert-Butoxy)-2-(2-chloro-4-(4,4-dimethylpiperidin-1-yl)-5-(4-(4-fluorophenethoxy)phenyl)-6-(hydroxymethyl)pyridin-3-yl)acetic acid] registered an EC50 of 0.3 nM.

Regarding `Cc1ncc(-c2ccc(OCCc3ccccc3)c(F)c2)c(N2CCC(C)(C)CC2)c1[C@H](OC(C)(C)C)C(=O)O` [Example 258, (S)-2-(tert-Butoxy)-2-(4-(4,4-dimethylpiperidin-1-yl)-5-(3-fluoro-4-phenethoxyphenyl)-2-methylpyridin-3-yl)acetic acid], the EC50 was determined as 1 nM.

Consider `COc1ccc(CCOc2ccc(-c3cnc(C)c([C@H](OC(C)(C)C)C(=O)O)c3N3CCC(C)(C)CC3)cc2)cc1` [Example 367, (2S)-2-(tert-butoxy)-2-[4-(4,4-dimethylpiperidin-1-yl)-5-{4-[2-(4-methoxyphenyl)ethoxy]phenyl}-2-methylpyridin-3-yl]acetic acid], for which the response was half-maximal at 1 nM (EC50).

As for `Cc1cc(-c2cnc(C)c([C@H](OC(C)(C)C)C(=O)O)c2N2CCC(C)(C)CC2)cnc1OCC(C)C` [Example 428, (S)-2-tert-Butoxy-2-(4-(4,4-dimethylpiperidin-1-yl)-6′-isobutoxy-5′,6-dimethyl-3, 3′-bipyridin-5-yl)acetic acid], it took 7 nM to reach a half-maximal effect (EC50).

Regarding `CC1(C)CCN(c2c(-c3ccc(OCCc4ccc(F)cc4)cc3)cnc(C#N)c2[C@H](OC(C)(C)C)C(=O)O)CC1` [Example 222, (S)-2-(tert-Butoxy)-2-(2-cyano-4-(4,4-dimethylpiperidin-1-yl)-5-(4-(4-fluorophenethoxy)phenyl)pyridin-3-yl)acetic acid], it took 8 nM to reach a half-maximal effect (EC50).

`Cc1cccc(COc2ccc(-c3cnc(C)c([C@H](OC(C)(C)C)C(=O)O)c3N3CCC(C)(C)CC3)nc2)c1` [Example 347, (2S)-2-(tert-butoxy)-2-[4′-(4,4-dimethylpiperidin-1-yl)-6′-methyl-5-[(3-methylphenyl)methoxy]-[2,3′-bipyridine]-5′-yl]acetic acid]: the response was half-maximal at 1 nM (EC50).

Compound `Cc1ncc(-c2cnc(OCCCC(C)C)c(F)c2)c(N2CCC(C)(C)CC2)c1[C@H](OC(C)(C)C)C(=O)O` [Example 394, (2S)-2-(tert-butoxy)-2-[4-(4,4-dimethylpiperidin-1-yl)-5′-fluoro-6-methyl-6′-[(4-methylpentyl)oxy]-[3,3′-bipyridine]-5-yl]acetic acid] gave an EC50 of 3 nM.

`Cc1ncc(-c2ccc(CN(C)c3ncnc4c3oc3ccccc34)cc2)c(N2CCC(C)(C)CC2)c1[C@H](OC(C)(C)C)C(=O)O` [Example 20, (2S)-2-(tert-Butoxy)-2-[4-(4,4-dimethylpiperidin-1-yl)-2-methyl-5-(4-{[methyl({8-oxa-3,5-diazatricyclo[7.4.0.0^2,7]trideca-1(9),2(7),3,5,10,12-hexaen-6-yl})amino]methyl}phenyl)pyridin-3-yl]acetic acid] had an EC50 of 2 nM.

With `COc1ccc(CCOc2ccc(-c3cnc(C)c([C@H](OC(C)(C)C)C(=O)O)c3N3CCC(C)(C)CC3)nc2)cc1C` [Example 291, (2S)-2-(tert-butoxy)-2-[4′-(4,4-dimethylpiperidin-1-yl)-5-[2-(4-methoxy-3-methylphenyl)ethoxy]-6′-methyl-[2,3′-bipyridine]-5′-yl]acetic acid], the EC50 was 2 nM.

`COc1ccccc1COc1ccc(-c2cnc(C)c([C@H](OC(C)(C)C)C(=O)O)c2N2CCC(C)(C)CC2)nc1` [Example 357, (2S)-2-(tert-butoxy)-2-[4′-(4,4-dimethylpiperidin-1-yl)-5-[(2-methoxyphenyl)methoxy]-6′-methyl-[2,3′-bipyridine]-5′-yl]acetic acid] yielded an EC50 of 0.8 nM.

`COc1c(Cl)cccc1-c1cnc(C)c([C@H](OC(C)(C)C)C(=O)O)c1N1CCC(C)(C)CC1` [Example 152, (2S)-2-(tert-Butoxy)-2-[5-(3-chloro-2-methoxyphenyl)-4-(4,4-dimethylpiperidin-1-yl)-2-methylpyridin-3-yl]acetic acid] yielded an EC50 of 60 nM.

For `CCc1ncc(-c2ccc(OCC(C)C)cn2)c(N2CCC(C)(C)CC2)c1[C@H](OC(C)(C)C)C(=O)O` [Example 277, (S)-2-(tert-Butoxy)-2-(4′-(4,4-dimethylpiperidin-1-yl)-6′-ethyl-5-isobutoxy-[2, 3′-bipyridin]-5′-yl)acetic acid], it took 6 nM to reach a half-maximal effect (EC50).

`Cc1ncc(-c2ccc(OCCc3c(Cl)cccc3Cl)cn2)c(N2CCC(C)(C)CC2)c1[C@H](OC(C)(C)C)C(=O)O` [Example 297, (2S)-2-(tert-butoxy)-2-{5-[2-(2,6-dichlorophenyl)ethoxy]-4′-(4,4-dimethylpiperidin-1-yl)-6′-methyl-[2,3′-bipyridine]-5′-yl}acetic acid] had an EC50 of 1 nM.

For the compound `COc1c(F)cccc1-c1cnc(C)c([C@H](OC(C)(C)C)C(=O)O)c1N1CCC(C)(C)CC1` [Example 166, (2S)-2-(tert-Butoxy)-2-[4-(4,4-dimethylpiperidin-1-yl)-5-(3-fluoro-2-methoxyphenyl)-2-methylpyridin-3-yl]acetic acid], the EC50 came to 11 nM.

Take `CCCCOc1ncc(-c2cnc(C)c([C@H](OC(C)(C)C)C(=O)O)c2N2CCC(C)(C)CC2)cc1F` [Example 377, (2S)-2-(tert-butoxy)-2-[6′-butoxy-4-(4,4-dimethylpiperidin-1-yl)-5′-fluoro-6-methyl-[3,3′-bipyridine]-5-yl]acetic acid]: the EC50 came to 4 nM.

Compound `Cc1ncc(-c2ccc(OCCc3cccc(Cl)c3)cc2)c(N2CCC(C)(C)CC2)c1[C@H](OC(C)(C)C)C(=O)O` [Example 364, (2S)-2-(tert-butoxy)-2-(5-{4-[2-(3-chlorophenyl)ethoxy]phenyl}-4-(4,4-dimethylpiperidin-1-yl)-2-methylpyridin-3-yl)acetic acid] had an EC50 of 2 nM.

For `Cc1ncc(-c2ccc(OCc3ncnc4c3oc3ccccc34)cc2)c(N2CCC(C)(C)CC2)c1[C@H](OC(C)(C)C)C(=O)O` [Example 19, (2S)-2-(tert-Butoxy)-2-[4-(4,4-dimethylpiperidin-1-yl)-2-methyl-5-[4-({8-oxa-3,5-diazatricyclo[7.4.0.0^2,7]trideca-1(9), 2(7), 3,5,10,12-hexaen-6-yl}methoxy)phenyl]pyridin-3-yl]acetic acid], a half-maximal effect (EC50) was put at 4 nM.

Consider `Cc1ncc(-c2ncc(OCCc3ccc(F)cc3)cn2)c(N2CCC(C)(C)CC2)c1[C@H](OC(C)(C)C)C(=O)O` [Example 14, (S)-2-(tert-Butoxy)-2-(4-(4,4-dimethylpiperidin-1-yl)-5-(5-(4-fluorophenethoxy)pyrimidin-2-yl)-2-methylpyridin-3-yl)acetic acid], for which the EC50 was determined as 2 nM.

Consider `Cc1ncc(-c2ccc(OCCc3ccc(Cl)cc3)cn2)c(N2CCC(C)(C)CC2)c1[C@H](OC(C)(C)C)C(=O)O` [Example 309, (2S)-2-(tert-butoxy)-2-{5-[2-(4-chlorophenyl)ethoxy]-4′-(4,4-dimethylpiperidin-1-yl)-6′-methyl-[2,3′-bipyridine]-5′-yl}acetic acid], for which the EC50 came out at 0.4 nM.

`Cc1ccccc1COc1ccc(-c2cnc(C)c([C@H](OC(C)(C)C)C(=O)O)c2N2CCC(C)(C)CC2)nc1` [Example 346, (2S)-2-(tert-butoxy)-2-[4′-(4,4-dimethylpiperidin-1-yl)-6′-methyl-5-[(2-methylphenyl)methoxy]-[2,3′-bipyridine]-5′-yl]acetic acid] had an EC50 of 5 nM. Compared with the last compound, the EC50 is about 12-fold higher.

`Cc1cc(C)n(-c2nc(C)c([C@H](OC(C)(C)C)C(=O)O)c(N3CCC(C)(C)CC3)c2-c2ccc(OCCc3ccc(F)cc3)cc2)n1` [Example 59, (S)-2-(tert-Butoxy)-2-(6-(3,5-dimethyl-1H-pyrazol-1-yl)-4-(4,4-dimethylpiperidin-1-yl)-5-(4-(4-fluorophenethoxy)phenyl)-2-methylpyridin-3-yl)acetic acid] gave an EC50 of 3 nM.

In turn, `Cc1nc(Nc2ccnnc2)c(-c2ccc(OCCc3ccc(F)cc3)c(F)c2)c(N2CCC(C)(C)CC2)c1[C@H](OC(C)(C)C)C(=O)O` [Example 74, (S)-2-(tert-Butoxy)-2-(4-(4,4-dimethylpiperidin-1-yl)-5-(3-fluoro-4-(4-fluorophenethoxy)phenyl)-2-methyl-6-(pyridazin-4-ylamino)pyridin-3-yl)acetic acid] came in with an EC50 of 2 nM.

For `Cc1ncc(-c2ccc(OCCc3ccc(F)cc3)nn2)c(N2CCC(C)(C)CC2)c1[C@H](OC(C)(C)C)C(=O)O` [Example 17, (S)-2-(tert-Butoxy)-2-(4-(4,4-dimethylpiperidin-1-yl)-5-(6-(4-fluorophenethoxy)pyridazin-3-yl)-2-methylpyridin-3-yl)acetic acid], the response was half-maximal at 85 nM (EC50).

Consider `Cc1ncc(-c2cnc(O)c(F)c2)c(N2CCC(C)(C)CC2)c1[C@H](OC(C)(C)C)C(=O)O` [Example 387, (2S)-2-(tert-butoxy)-2-[4-(4,4-dimethylpiperidin-1-yl)-5′-fluoro-6′-hydroxy-6-methyl-[3,3′-bipyridine]-5-yl]acetic acid], for which the EC50 came to 4000 nM. This EC50 is about 47-fold higher than that of the compound before.
